One may read the IC50 as the concentration needed to halve the response being measured. Usually EC50 stands for the concentration that produces a half-maximal response.

Consider 5 molecules from ChEMBL document CHEMBL5346922, “Discovery of phenylcarbamoyl xanthone derivatives as potent neuroprotective agents for treating ischemic stroke” (Eur J Med Chem, 2023).

Active and inactive are the calls of the source. No cut-off for these calls is given here.

Data set [1] concerns PC-12. Nature of the data set: Neuroprotective activity against glutamate induced excitotoxicity in rat PC12 cells assessed as cell survival at 160 uM pretreated with glutamate for 24 hrs followed by compound addition and measured after 24 hrs. To be noted: read-out: Survival. Format: functional.
The test system of data set [2] is PC-12. The experiment in a line: Neuroprotective activity in rat PC12 cells assessed as protection against glutamate induced excitotoxicity at 160 uM pretreated with glutamate for 24 hrs followed by compound addition and measured after 24 hrs. Type of data set: functional.
For data set [3], the system named is Rattus norvegicus. The experiment in a line: Neuroprotective activity against middle cerebral artery occlusion induced ischemia stroke Sprague-Dawley rat model assessed as Zea-longa score at 20 mg/kg, po measured after 24 hrs (reference value: 2.17+/- 0.37). Type of data set: functional.
Data set [4] has as its system Rattus norvegicus. The experiment in a line: Neuroprotective activity against middle cerebral artery occlusion induced ischemia stroke Sprague-Dawley rat model assessed as decrease in cerebral infarction area at 60 mg/kg, ip measured after 24 hrs by TTC staining based microscopic assay (reference value: 15.91 +/- 9.06 %). Type of data set: functional. Also on record: scale not given: the % may be the effect or the level left.

Data set [5] concerns Rattus norvegicus. Nature of the data set: Neuroprotective activity against middle cerebral artery occlusion induced ischemia stroke Sprague-Dawley rat model assessed as decrease in brain water content at 60 mg/kg, ip measured after 24 hrs (reference value: 83.17 +/- 2.40%). Type of data set: functional. Also on record: scale not given: the % may be the effect or the level left.

For data set [6], the system named is PC-12. The experiment in a line: Cytotoxicity against rat PC12 cells assessed as reduction in cell viability incubated for 24 hrs by MTT assay. Type of data set: functional, cell-based. As to conditions: PC-12, 24 h.
Data set [7] deals with PC-12. The experiment in a line: Cytotoxicity against rat PC12 cells assessed as reduction in cell viability at 80 uM incubated for 24 hrs by MTT assay. Format: functional.
The subject of data set [8] is PC-12. Nature of the data set: Neuroprotective activity against glutamate induced excitotoxicity in rat PC12 cells assessed as cell survival at 20 uM pretreated with glutamate for 24 hrs followed by compound addition and measured after 24 hrs. As to conditions: read-out: Survival. Type of data set: functional.
In data set [9] the test system is PC-12. Nature of the data set: Neuroprotective activity in rat PC12 cells assessed as protection against glutamate induced excitotoxicity at 20 uM pretreated with glutamate for 24 hrs followed by compound addition and measured after 24 hrs. Type of data set: functional.
For data set [10], the system named is PC-12. Nature of the data set: Neuroprotective activity against H2O2-induced oxidative damage in rat PC12 cells assessed as increase in cell survival at 20 uM pretreated with H2O2 for 24 hrs followed by compound addition and measured after 24 hrs. Format: functional. As to conditions: read-out: Survival.
Data set [11] has as its system PC-12. Nature of the data set: Neuroprotective activity against H2O2-induced oxidative damage in rat PC12 cells at 20 uM pretreated with H2O2 for 24 hrs followed by compound addition and measured after 24 hrs. Type of data set: functional.
Data set [12] has as its system PC-12. Nature of the data set: Neuroprotective activity against glutamate induced excitotoxicity in rat PC12 cells pretreated with glutamate for 24 hrs followed by compound addition and measured after 24 hrs. Type of data set: functional, cell-based.
The subject of data set [13] is PC-12. The experiment in a line: Neuroprotective activity against H2O2-induced oxidative damage in rat PC12 cells pretreated with H2O2 for 24 hrs followed by compound addition and measured after 24 hrs. Type of data set: functional, cell-based.
A short description of data set [14]: Acute toxicity in Sprague-Dawley rat assessed as animal death at 4000 mg/kg, po measured for 24 hrs. Format: organism-based. As to conditions: in vivo.
Data set [15] relates to Rattus norvegicus. Nature of the data set: Neuroprotective activity against middle cerebral artery occlusion induced ischemia stroke Sprague-Dawley rat model assessed as Zea-longa score at 60 mg/kg, po measured after 24 hrs (reference value: 2.33 +/- 0.47). Type of data set: functional.
The test system of data set [16] is Rattus norvegicus. Nature of the data set: Neuroprotective activity against middle cerebral artery occlusion induced ischemia stroke Sprague-Dawley rat model assessed as reduction in TNF-alpha level in serum at 20 to 60 mg/kg, ip measured after 24 hrs by ELISA analysis. Type of data set: functional, organism-based. As to conditions: dose 20-60 mg/kg.
The test system of data set [17] is Rattus norvegicus. Nature of the data set: Neuroprotective activity against middle cerebral artery occlusion induced ischemia stroke Sprague-Dawley rat model assessed as reduction in IL-1beta level in serum at 20 to 60 mg/kg, ip measured after 24 hrs by ELISA analysis. Format: functional, organism-based. To be noted: dose 20-60 mg/kg. In general terms: An ELISA detects its analyte on a solid surface through an enzyme-linked reagent.

In data set [18] the test system is Rattus norvegicus. Nature of the data set: Neuroprotective activity against middle cerebral artery occlusion induced ischemia stroke Sprague-Dawley rat model assessed as increase in serum SOD level at 20 to 60 mg/kg, ip measured after 24 hrs. To be noted: dose 20-60 mg/kg. Format: functional, organism-based.
Data set [19] relates to Rattus norvegicus. The experiment in a line: Neuroprotective activity against middle cerebral artery occlusion induced ischemia stroke Sprague-Dawley rat model assessed as […] in serum MDA level at 20 to 60 mg/kg, ip measured after 24 hrs. Format: functional, organism-based. As to conditions: dose 20-60 mg/kg.
Data set [20] has as its system PC-12. Nature of the data set: Neuroprotective activity against glutamate induced excitotoxicity in rat PC12 cells assessed as cell survival at 25 uM pretreated with glutamate for 24 hrs followed by compound addition and measured after 24 hrs. Format: functional. To be noted: read-out: Survival.

As to `CC12CC3CC(C)(C1)CC(N)(C3)C2` [MEMANTINE], in the data set on PC-12 [1], the viability at 160 µM turned out to be 63%. Also, the Activity with PC-12 [2] amounted to 46.85%.

Regarding `CCCCC1OC(=O)c2ccccc21` (stereo not drawn) [RAC-3-N-BUTYLPHTHALIDE], the Activity in the data set with Rattus norvegicus [3] is recorded as 1.33; in the data set with Rattus norvegicus [4], 1.64%; in the data set on Rattus norvegicus [5], 82.2%.

Take `COc1c(OC(=O)N(C)c2ccccc2)cc2oc3c(CN(C)C)c4c(c(O)c3c(=O)c2c1CC=C(C)C)C=CC(C)(C)O4`: the IC50 with PC-12 [6] amounted to 5 µM. Moreover, the Activity in the data set on PC-12 [7] came out at 90%.

As to `COc1c(OC(=O)N(C)c2ccccc2)cc2oc3cc4c(c(O)c3c(=O)c2c1CC=C(C)C)C=CC(C)(C)O4`, the IC50 in the data set with PC-12 [6] amounted to 3.3 µM. Further, the viability at 20 µM in the data set with PC-12 [8] was found to be 68.6%; in the data set with PC-12 [10], 78.9%. Besides, the Activity is listed as 54.79% in the data set with PC-12 [9]; 52.62% in the data set with PC-12 [11]; “Non-Toxic” in data set [14]; 1.67 with Rattus norvegicus [15]; 1.78% in the data set with Rattus norvegicus [4]; 77.41% with Rattus norvegicus [5]. Also, the half-maximal effective concentration (EC50) amounted to 16.1 µM in the data set on PC-12 [12] and 19.3 µM in the data set with PC-12 [13]. The result in the data set with PC-12 [7] was inactive. Also, the outcome in the data set on Rattus norvegicus [16], with Rattus norvegicus [17], with Rattus norvegicus [18] and in the data set on Rattus norvegicus [19] was Active.

Take `N[C@@H](CCC(=O)O)C(=O)O` [GLUTAMIC ACID]: the viability at 25 µM with PC-12 [20] was determined as 30.5%.
